Key:
GPR6 = biological target: T1, GPR6 (Homo sapiens, UniProt P46095); experiment: GPR6 antagonist functional cAMP assay (LANCE Ultra cAMP TR-FRET, CHO cells stably expressing GPR6); format: cell-based; conditions: CHO cells stably expressing GPR6, cAMP assay (Example 24)
T1 construct: expressed in transfected cells; host or cells: CHO cells
Procedure, shortened: (§1)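 Suspended cells were plated at 10,000 per well in Krebs-Ringer bicarbonate buffer containing 0.1% BSA and 150 μM Ro 20-1724, then treated with compounds for 45 min at 37 °C. Intracellular cAMP was then quantified by TR-FRET immunoassay.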

GPR3 = biological target: T2, GPR3 (Homo sapiens, UniProt P46089); experiment: GPR3 antagonist functional cAMP assay (LANCE Ultra cAMP TR-FRET, CHO cells stably expressing GPR3); format: cell-based; conditions: CHO cells stably expressing GPR3, cAMP assay (Example 24)
T2 construct: expressed in transfected cells; host or cells: CHO cells
T2 sequence (P46089 whole entry, species assumed): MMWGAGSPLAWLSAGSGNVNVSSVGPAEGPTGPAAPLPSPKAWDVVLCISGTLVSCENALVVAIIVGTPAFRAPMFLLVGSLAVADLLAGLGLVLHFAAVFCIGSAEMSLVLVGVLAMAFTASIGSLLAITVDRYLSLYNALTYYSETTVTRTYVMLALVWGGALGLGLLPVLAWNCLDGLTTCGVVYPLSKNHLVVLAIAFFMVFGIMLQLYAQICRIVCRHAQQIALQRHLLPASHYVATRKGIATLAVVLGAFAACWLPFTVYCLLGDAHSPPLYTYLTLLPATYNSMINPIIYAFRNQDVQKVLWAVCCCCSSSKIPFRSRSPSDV
Procedure, shortened: as §1

T1 sequence (P46095 whole entry): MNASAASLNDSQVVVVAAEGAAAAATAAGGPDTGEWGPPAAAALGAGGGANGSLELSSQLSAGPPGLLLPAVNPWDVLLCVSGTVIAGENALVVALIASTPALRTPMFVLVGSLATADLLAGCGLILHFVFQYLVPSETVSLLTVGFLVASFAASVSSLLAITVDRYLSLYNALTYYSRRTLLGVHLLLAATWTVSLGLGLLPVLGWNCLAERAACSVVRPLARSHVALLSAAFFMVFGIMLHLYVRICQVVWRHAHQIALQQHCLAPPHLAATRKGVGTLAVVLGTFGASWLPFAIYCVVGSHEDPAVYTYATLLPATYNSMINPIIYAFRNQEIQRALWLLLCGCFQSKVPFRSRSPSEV

Structure (SMILES) | IC50 (GPR6) [µM] | IC50 (GPR3) [µM]
CC(=O)N1CCc2nc(N3CCC(Oc4ccc(F)cc4F)CC3)c(-c3cnn(CCO)c3)nc2C1 [Compound 88, 1-{2-[4-(2,4-difluorophenoxy)piperidin-1-yl]-3-[1-(2-hydroxyethyl)-1H-pyrazol-4-yl]-5H,6H,7H,8H-pyrido[3,4-b]pyrazin-6-yl}ethan-1-one] | 1 to 30 | 1 to 30
CC(=O)N1CCc2nc(N3CCC(Oc4ccc(F)cc4F)CC3)c(-c3cnc4n3CCN(C)C4)nc2C1 [Compound 90, 1-(2-(4-(2,4-difluorophenoxy)piperidin-1-yl)-3-(7-methyl-5,6,7,8-tetrahydroimidazo[1,2-a]pyrazin-3-yl)-7,8-dihydropyrido[3,4-b]pyrazin-6(5H)-yl)ethan-1-one] | 1 to 30 | 1 to 30
CC(=O)N1CCC(c2nc3c(nc2N2CCC(Oc4ccc(F)cc4F)CC2)CCN(C(C)=O)C3)CC1 [Compound 91, 1-(4-(6-acetyl-2-(4-(2,4-difluorophenoxy)piperidin-1-yl)-5,6,7,8-tetrahydropyrido[3,4-b]pyrazin-3-yl)piperidin-1-yl)ethan-1-one] | 1 to 30 | 1 to 30
COc1cncc(-c2nc3cnccc3nc2N2CC3(CC(Oc4ccc(F)cc4F)C3)C2)n1 [Compound 92, 2-(6-(2,4-difluorophenoxy)-2-azaspiro[3.3]heptan-2-yl)-3-(6-methoxypyrazin-2-yl)pyrido[3,4-b]pyrazine] | 1 to 30 | ≥ 30
COc1cncc(-c2nc3cnc(CO)cc3nc2N2CCN(Cc3ccc(F)cc3F)CC2)n1 [Compound 95, (2-(4-(2,4-difluorobenzyl)piperazin-1-yl)-3-(6-methoxypyrazin-2-yl)pyrido[3,4-b]pyrazin-7-yl)methanol] | 1 to 30 | 1 to 30
Fc1ccc(OC2CCN(c3nc4ccncc4nc3-c3ncn[nH]3)CC2)c(F)c1 [Compound 96, 4-(2,4-difluorophenoxy)-1-[3-(1H-1,2,4-triazol-5-yl)pyrido[3,4-b]pyrazin-2-yl]piperidine] | 1 to 30 | 1 to 30
Fc1ccc(OC2CCN(c3nc4cnccc4nc3-c3cnn(C4CCCCO4)c3)CC2)c(F)c1 (centres unmarked) [Compound 97, 4-(2,4-difluorophenoxy)-1-{2-[1-(oxan-2-yl)-1H-pyrazol-4-yl]pyrido[3,4-b]pyrazin-3-yl}piperidine] | 1 to 30 | 1 to 30
CC(=O)N1CCc2nc(N3CCC(Oc4ccc(F)cc4F)CC3)c(-c3c(C)n[nH]c3C)nc2C1 [Compound 98, 1-{2-[4-(2,4-difluorophenoxy)piperidin-1-yl]-3-(3,5-dimethyl-1H-pyrazol-4-yl)-5H,6H,7H,8H-pyrido[3,4-b]pyrazin-6-yl}ethan-1-one] | ≥ 30 | ≥ 30
O=c1cccc(-c2nc3ccncc3nc2N2CCC(Oc3ccc(F)cc3F)CC2)[nH]1 [Compound 99, 6-{3-[4-(2,4-difluorophenoxy)piperidin-1-yl]pyrido[3,4-b]pyrazin-2-yl}-1,2-dihydropyridin-2-one] | 1 to 30 | 1 to 30
Fc1ccc(OC2CCN(c3nc4cnccc4nc3-c3cn[nH]c3)CC2)c(F)c1 [Compound 100, 4-(2,4-difluorophenoxy)-1-[2-(1H-pyrazol-4-yl)pyrido[3,4-b]pyrazin-3-yl]piperidine] | 0.1 to 1 | 1 to 30
CC(=O)N1CCc2nc(N3CCC(Oc4ccc(F)cc4F)CC3)c(-c3cccc(N4CCCC4)n3)nc2C1 [Compound 101, 1-{2-[4-(2,4-difluorophenoxy)piperidin-1-yl]-3-[6-(pyrrolidin-1-yl)pyridin-2-yl]-5H,6H,7H,8H-pyrido[3,4-b]pyrazin-6-yl}ethan-1-one] | 1 to 30 | 1 to 30
COc1cccc(-c2nc3cnccc3nc2N2CCC(Oc3ccc(F)cc3F)CC2)n1 [Compound 102, 2-{2-[4-(2,4-difluorophenoxy)piperidin-1-yl]pyrido[3,4-b]pyrazin-3-yl}-6-methoxypyridine] | 0.1 to 1 | 1 to 30
CC(=O)N1CCc2nc(N3CCC(Oc4ccc(F)cc4F)CC3)c(-c3cccc(NC(C)C)n3)nc2C1 [Compound 103, 1-{2-[4-(2,4-difluorophenoxy)piperidin-1-yl]-3-{6-[(propan-2-yl)amino]pyridin-2-yl}-5H,6H,7H,8H-pyrido [3,4-b]pyrazin-6-yl}ethan-1-one] | 1 to 30 | ≥ 30
COc1cccc(-c2nc3cnccc3nc2N2CC3(CC(Oc4ccc(F)cc4F)C3)C2)n1 [Compound 104, 6-(2,4-difluorophenoxy)-2-[3-(6-methoxypyridin-2-yl)pyrido[3,4-b]pyrazin-2-yl]-2-azaspiro[3.3]heptane] | 1 to 30 | 1 to 30
CC(=O)N1CCc2nc(N3CCC(Oc4ccc(F)cc4F)CC3)c(-c3ccc(F)c(=O)[nH]3)nc2C1 [Compound 105, 6-{6-acetyl-2-[4-(2,4-difluorophenoxy)piperidin-1-yl]-5H,6H,7H,8H-pyrido[3,4-b]pyrazin-3-yl}-3-fluoro-1,2-dihydropyridin-2-one] | 1 to 30 | 1 to 30

The remaining lines, values ahead:

IC50 (GPR6) [µM] | IC50 (GPR3) [µM] | Structure (SMILES)
1 to 30 | 1 to 30 | CC(=O)N1CCc2nc(N3CCC(Oc4ccc(F)cc4F)CC3)c(-c3cnn4c3CN(C(C)=O)CC4)nc2C1 [Compound 107, 1-(3-{6-acetyl-2-[4-(2,4-difluorophenoxy)piperidin-1-yl]-5H,6H,7H,8H-pyrido[3,4-b]pyrazin-3-yl}-4H,5H,6H,7H-pyrazolo[1,5-a]pyrazin-5-yl)ethan-1-one]
1 to 30 | 1 to 30 | CC(=O)N1CCc2nc(N3CCC(Oc4ccc(F)cc4F)CC3)c(-c3cnn4c3CNCC4)nc2C1 [Compound 108, 1-{2-[4-(2,4-difluorophenoxy)piperidin-1-yl]-3-{4H,5H,6H,7H-pyrazolo[1,5-a]pyrazin-3-yl}-5H,6H,7H,8H-pyrido[3,4-b]pyrazin-6-yl}ethan-1-one]
1 to 30 | 1 to 30 | CC(=O)N1CCc2nc(N3CCC(Oc4ccc(F)cc4F)CC3)c(-c3cnn4c3CN(C)CC4)nc2C1 [Compound 110, 1-{2-[4-(2,4-difluorophenoxy)piperidin-1-yl]-3-{5-methyl-4H,5H,6H,7H-pyrazolo[1,5-a]pyrazin-3-yl}-5H,6H,7H,8H-pyrido[3,4-b]pyrazin-6-yl}ethan-1-one]
0.1 to 1 | 0.1 to 1 | COc1nccc(-c2nc3c(nc2N2CCC(Oc4ccc(F)cc4F)CC2)CCN(C(C)=O)C3)n1 [Compound 111, 1-{2-[4-(2,4-difluorophenoxy)piperidin-1-yl]-3-(2-methoxypyrimidin-4-yl)-5H,6H,7H,8H-pyrido[3,4-b]pyrazin-6-yl}ethan-1-one]
1 to 30 | 1 to 30 | COc1ncccc1-c1nc2c(nc1N1CCC(Oc3ccc(F)cc3F)CC1)CCN(C(C)=O)C2 [Compound 112, 1-{2-[4-(2,4-difluorophenoxy)piperidin-1-yl]-3-(2-methoxypyridin-3-yl)-5H,6H,7H,8H-pyrido[3,4-b]pyrazin-6-yl}ethan-1-one]
1 to 30 | ≥ 30 | CC(=O)N1CCc2nc(N3CCC(Oc4ccc(F)cc4F)CC3)c(-c3cccn(C)c3=O)nc2C1 [Compound 113, 3-{6-acetyl-2-[4-(2,4-difluorophenoxy)piperidin-1-yl]-5H,6H,7H,8H-pyrido[3,4-b]pyrazin-3-yl}-1-methyl-1,2-dihydropyridin-2-one]
0.1 to 1 | 1 to 30 | CC(=O)N1CCc2nc(-c3cn[nH]c3)c(N3CCC(Oc4ccc(F)cc4F)CC3)nc2C1 [Compound 115, 1-{3-[4-(2,4-difluorophenoxy)piperidin-1-yl]-2-(1H-pyrazol-4-yl)-5H,6H,7H,8H-pyrido[3,4-b]pyrazin-6-yl}ethan-1-one]
0.1 to 1 | 1 to 30 | CC(=O)N1CCc2nc(N3CCC(Oc4ccc(F)cc4F)CC3)c(-c3c[nH]c(C)n3)nc2C1 [Compound 116, 1-{2-[4-(2,4-difluorophenoxy)piperidin-1-yl]-3-(2-methyl-1H-imidazol-4-yl)-5H,6H,7H,8H-pyrido[3,4-b]pyrazin-6-yl}ethan-1-one]
0.1 to 1 | 1 to 30 | CNc1cccc(-c2nc3c(nc2N2CCC(Oc4ccc(F)cc4F)CC2)CCN(C(C)=O)C3)n1 [Compound 117, 1-{2-[4-(2,4-difluorophenoxy)piperidin-1-yl]-3-[6-(methylamino)pyridin-2-yl]-5H,6H,7H,8H-pyrido[3,4-b]pyrazin-6-yl}ethan-1-one]
1 to 30 | 1 to 30 | N#CCN1CCc2nc(N3CCC(Oc4ccc(F)cc4F)CC3)c(-c3cnn(C4CCCCO4)c3)nc2C1 (centres unmarked) [Compound 118, 2-{2-[4-(2,4-difluorophenoxy)piperidin-1-yl]-3-[1-(oxan-2-yl)-1H-pyrazol-4-yl]-5H,6H,7H,8H-pyrido[3,4-b]pyrazin-6-yl}acetonitrile]
0.1 to 1 | 1 to 30 | N#CCN1CCc2nc(N3CCC(Oc4ccc(F)cc4F)CC3)c(-c3cn[nH]c3)nc2C1 [Compound 119, 2-{2-[4-(2,4-difluorophenoxy)piperidin-1-yl]-3-(1H-pyrazol-4-yl)-5H,6H,7H,8H-pyrido[3,4-b]pyrazin-6-yl}acetonitrile]
0.1 to 1 | 1 to 30 | O=C(N1CCOCC1)N1CCc2nc(N3CCC(Oc4ccc(F)cc4F)CC3)c(-c3cn[nH]c3)nc2C1 [Compound 120, 4-{2-[4-(2,4-difluorophenoxy)piperidin-1-yl]-3-(1H-pyrazol-4-yl)-5H,6H,7H,8H-pyrido[3,4-b]pyrazine-6-carbonyl}morpholine]
0.1 to 1 | 1 to 30 | CC(C)OC(=O)N1CCc2nc(N3CCC(Oc4ccc(F)cc4F)CC3)c(-c3cn[nH]c3)nc2C1 [Compound 121, propan-2-yl 2-[4-(2,4-difluorophenoxy)piperidin-1-yl]-3-(1H-pyrazol-4-yl)-c5H,6H,7H,8H-pyrido[3,4-b]pyrazine-6-carboxylate]

Reference: US20260042755A1, “GPR6 INVERSE AGONISTS” (MapLight Therapeutics, Inc., priority 2022, published 2026)
